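Five compound concentrations were applied to cells in 96-well plates for 48 hours; endpoints were derived by simple linear interpolation of the resulting dose-response curve. GI50: concentration for 50% inhibition of growth. The concentration for full growth arrest is given as TGI.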 Where a SMILES comes first, the peptide text is derived from it.
What was measured:
Test in all cases: growth of human tumour cells (NCI), 48 h
HT29 colon = tested on: HT29 colon
SNB-19 CNS = tested on: SNB-19 CNS
MDA-MB-435 = tested on: MDA-MB-435
LOX IMVI melanoma = tested on: LOX IMVI melanoma
BT-549 breast = tested on: BT-549 breast
DU-145 prostate = tested on: DU-145 prostate
NCI/ADR-RES ovarian = tested on: NCI/ADR-RES ovarian
SF-539 CNS = tested on: SF-539 CNS
OVCAR-5 ovarian = tested on: OVCAR-5 ovarian
U251 CNS = tested on: U251 CNS

Row | Structure (SMILES) | TGI (HT29 colon) [µM] | TGI (SNB-19 CNS) [µM] | TGI (MDA-MB-435) [µM] | TGI (LOX IMVI melanoma) [µM] | TGI (BT-549 breast) [µM] | TGI (DU-145 prostate) [µM] | TGI (NCI/ADR-RES ovarian) [µM] | TGI (SF-539 CNS) [µM] | TGI (OVCAR-5 ovarian) [µM] | TGI (U251 CNS) [µM] | GI50 (HT29 colon) [µM] | GI50 (SNB-19 CNS) [µM] | GI50 (MDA-MB-435) [µM] | GI50 (LOX IMVI melanoma) [µM] | GI50 (BT-549 breast) [µM] | GI50 (DU-145 prostate) [µM] | GI50 (NCI/ADR-RES ovarian) [µM] | GI50 (SF-539 CNS) [µM] | GI50 (OVCAR-5 ovarian) [µM] | GI50 (U251 CNS) [µM]
1 | CCn1c(SCc2nnc(Nc3ccccc3)s2)nc2ccccc2c1=O | 12.5 | 13.4 | > 100 | 25.4 | 26.7 | 36.5 | 10.9 | 19.3 | 31.1 | 5.3 | – | – | – | – | – | – | – | – | – | –
2 | Cc1sc2nc3n(sc4nc5sc(C)c(C)c5c(=O)n43)c(=O)c2c1C | > 100 | > 100 | > 100 | > 100 | > 100 | > 100 | > 100 | > 100 | > 100 | > 100 | – | – | – | – | – | – | – | – | – | –
3 | CCC1(O)CC(O)c2c(O)c3c(c(O)c2C1C(=O)OC)C(=O)c1cccc(O)c1C3=O (configuration not stated) | 14.1 | 20.9 | > 100 | 9.92 | 34.8 | 21.8 | 3.28 | 14.8 | 21 | 16.6 | – | – | – | – | – | – | – | – | – | –
4 | COc1ccc(-c2cc(-c3ccc(OC)c(OC)c3)nc(SCCCC(=O)NO)n2)cc1 | > 100 | 39.1 | 4.15 | 1.06 | > 100 | 17.7 | 4.77 | 3.48 | 6.25 | 5.78 | 1.87 | 2.54 | 1.27 | 0.243 | 3.8 | 1.53 | 0.977 | 1.31 | 1.53 | 1.76
5 | CC(=O)NCC1OC2COC(c3ccccc3)OC2C2N=C(c3ccccc3)OC12 (configuration not stated) | > 100 | > 100 | > 100 | > 100 | > 100 | > 100 | > 100 | > 100 | > 100 | > 100 | – | – | – | – | – | – | – | – | – | –
6 | C=C(C)[C@@H]1CC[C@]2(C(=O)OC3OC(COC4OC(CO)C(OC5OC(C)C(O)C(O)C5O)C(O)C4O)C(O)C(O)C3O)CC[C@]3(C)[C@H](CC[C@@H]4[C@@]5(C)CC[C@H](O)[C@@](C)(CO)[C@@H]5CC[C@]43C)[C@@H]12 (some centres not stated) | > 10 | > 10 | > 10 | > 8.27 | > 8.43 | > 10 | > 10 | > 7.72 | > 10 | > 10 | – | – | – | – | – | – | – | – | – | –
7 | C#Cc1cccc(Nc2ncnc3cc(OCCOC)c(OCCOC)cc23)c1 | > 100 | 92 | > 100 | > 100 | 98.7 | > 100 | > 100 | 81 | > 100 | 99 | – | – | – | – | 33.4 | 1.6 | – | – | – | –
8 | COc1ccc(Nc2nc(NNC(=O)Cc3ccccc3)nc(NNC(=O)c3ccncc3)n2)cc1 | > 10 | > 10 | > 10 | > 10 | > 10 | > 10 | > 10 | > 10 | > 10 | > 10 | – | – | – | – | – | – | – | – | – | –
9 | CCOC(=O)NC(OCc1ccccc1)(C(=O)OC)C(F)(F)F (configuration not stated) | > 100 | > 100 | > 100 | > 100 | > 100 | > 100 | > 100 | > 100 | > 100 | > 100 | – | – | – | – | – | – | – | – | – | –
10 | Cc1ccc(S(=O)(=O)CC2CCCn3c2c(C#N)c2ccccc23)cc1 (configuration not stated) | > 100 | > 100 | > 100 | > 100 | > 100 | > 100 | > 100 | > 100 | > 100 | > 100 | – | – | – | – | – | – | – | – | – | –
11 | CCC(C)C(NC(=O)C1CCCN1)C(=O)NC(C(=O)NCC(=O)NC(CC(N)=O)C(=O)NC(CC(C)C)C(=O)NC(CC(C)C)C(=O)NC(CCCCN)C(N)=O)C(C)C (configuration not stated) (H-PIVGNLLK-NH2; configuration not given here) | > 75 | > 75 | > 75 | > 75 | > 75 | > 75 | > 75 | > 75 | > 75 | > 75 | – | – | – | – | – | – | – | – | – | –
12 | Cc1ccc(C(=O)NN=C(/N=N/c2cccc(C)c2)c2ccc(N(C)C)cc2)cc1 | > 100 | > 100 | > 100 | > 100 | > 100 | > 100 | > 100 | > 100 | > 100 | > 100 | – | – | – | – | – | – | – | – | – | –
13 | CC(C)CCCC(C)[C@H]1CC[C@H]2NCCCC[C@]12C (some centres not stated) | 5.54 | 17.9 | 4.1 | 4.23 | 29.9 | 25.6 | 20.7 | 19.5 | 6.03 | 5.88 | – | – | – | – | – | – | – | – | – | –
14 | O=C(O)Cn1ncn(NC(=O)Cc2ccccc2)c1=S | > 10 | > 10 | > 10 | > 10 | > 10 | > 10 | > 10 | > 10 | > 10 | > 10 | – | – | – | – | – | – | – | – | – | –
15 | CCOC(=O)c1nc2ccccc2nc1Nc1ccc(F)cc1 | > 100 | 46.6 | > 100 | > 100 | 73.2 | > 100 | > 100 | > 58.9 | > 100 | 70.6 | – | – | – | – | – | – | – | – | – | –
16 | COc1ccc(OC)c(-c2cn3c(n2)sc2ccccc23)c1 | > 100 | > 100 | > 100 | > 100 | > 100 | > 100 | > 100 | > 100 | > 100 | > 100 | – | – | – | – | – | – | – | – | – | –
17 | C=C1CC(Cn2cc(Br)c(=O)[nH]c2=O)(c2ccc(Br)cc2)OC1=O (configuration not stated) | 7.89 | 30.4 | 10.4 | 3.64 | 8.25 | 15.5 | 15.9 | 23.7 | 22.5 | 28.8 | – | – | – | – | – | – | – | – | – | –
18 | O=C1/C(=C/c2cccs2)N=C(c2ccccc2)N1c1nc2ccccc2s1 | > 100 | > 100 | > 100 | > 100 | > 100 | > 100 | > 100 | > 100 | > 100 | > 100 | – | – | – | – | – | – | – | – | – | –
19 | CC(=O)c1cc(S(=O)(=O)c2ccc(O)c(C(C)=O)c2)ccc1O | > 100 | > 100 | > 100 | > 100 | > 100 | > 100 | > 100 | > 100 | > 100 | > 100 | – | – | – | – | – | – | – | – | – | –
20 | Cn1c(=O)[nH]n(-c2ccc3ccccc3c2)c1=O | > 100 | > 100 | > 100 | > 100 | > 100 | > 100 | > 100 | > 100 | > 100 | > 100 | – | – | – | – | – | – | – | – | – | –
21 | O=C1/C(=C(/Br)I)c2ccccc2-c2ccccc21 | 18.3 | 27 | 22 | 12.2 | 19.1 | 30 | 30.4 | 28.7 | 25.5 | 25.5 | – | – | – | – | – | – | – | – | – | –
22 | COCCN(C(=O)c1ccccc1)C1CCC(=O)c2[nH]c3ccccc3c21 (configuration not stated) | 24.3 | 24.3 | 17.5 | > 39.4 | 8.22 | 27.9 | 53.6 | 24.3 | 30.6 | 3.99 | – | – | – | – | – | – | – | – | – | –
23 | CC(=O)NC1C(OCc2ccccc2)OC(CO)C(O)C1OCC(=O)N[C@@H](C)C(=O)N[C@H](CCC(=O)NCCCCNc1c2ccccc2nc2cccc([N+](=O)[O-])c12)C(N)=O (some centres not stated) | 7.86 | 24 | 3.96 | 11.5 | 13.1 | 12.4 | > 100 | 6 | > 27.5 | 10.9 | – | – | – | – | – | – | – | – | – | –
24 | CC(=O)Nc1nc(C)c(S(=O)(=O)NC(=O)N2c3ccccc3CCc3ccccc32)s1 | > 100 | 71.9 | > 100 | > 100 | > 100 | > 100 | > 100 | > 100 | > 100 | > 100 | – | – | – | – | – | – | – | – | – | –
25 | CC1Cc2c(cc(N)nc2Br)NC1=O (configuration not stated) | > 100 | > 100 | > 100 | > 100 | > 100 | > 100 | > 100 | > 100 | > 100 | > 100 | – | – | – | – | – | – | – | – | – | –

From PubChem BioAssay (NCI)
